# Earlier results, collected in patent US20230364032A1, “USE OF 2-HOBA TO TREAT ATHEROSCLEROSIS” (Vanderbilt University, priority 2020, published 2023).
# Read-outs that look alike come from different tables or passages of the source.
# What was measured:
# [1] = tested on: Apoe−/− mice; details: cited from earlier work; for effect on atherosclerotic lesions: streptozotocin-treated Apoe−/− mice
# [2] = target: T1, IL-1β (Homo sapiens, UniProt P01584); details: humans with prior MI and elevated hsCRP; cited from earlier work
# T1 construct: host or cells: patients of a clinical trial (endogenous protein)
molecule,measurement,setting,value
Cc1c(C)c2c(c(C)c1O)CC[C@@](C)(CCC[C@H](C)CCC[C@H](C)CCCC(C)C)O2 [alpha tocopherol],effect on atherosclerosis,[1]; Apoe−/− mice,reduces
same,effect on urine F2-IsoP levels,[1]; Apoe−/− mice,reduces
N=C(N)NN [aminoguanidine],effect on atherosclerotic lesions,[1],reduce atherosclerotic lesions
NCCC(=O)N[C@@H](Cc1cnc[nH]1)C(=O)O [carnosine],effect on atherosclerosis,[1]; Apoe−/− mice or streptozotocin-treated Apoe−/− mice,reduce atherosclerosis
Cc1ncc(CO)c(CN)c1O [pyridoxamine],effect on atherosclerotic lesions,[1],reduce atherosclerotic lesions
canakinumab: an IL-1β neutralizing monoclonal antibody,cardiovascular event rates,[2],reduce cardiovascular event rates
